# Measured values published in patent publication US4185016A, “Pyrrolo benzodiazepine compounds” (priority 1977, dated 1980).
# Read-outs that look alike come from different tables or passages of the source.
# Columns and labels:
# in vivo = assay: in vivo; parameters: species or system DD strain male mice; conditions: mouse, ip
# Protocol: LD50 values of the compounds of this invention were determined by the use of DD strain male mice having body weight of 18 to 20 g, 5 heads per one group. Each test compound was dissolved into physiological solution of sodium chloride containing 1% dimethyl sulfoxide and administered intraperitoneally to the animals. The dose levels were 20 mg/kg, 16.7 mg/kg, 13.9 mg/kg, 11.6 mg/kg and 9.6 mg/kg. One week after the administration, LD50 was determined.
# (§1) The compounds used in the antitumor activity test and the acute toxicity test were the aforementioned novel compounds. The results of tests concerning the compounds of general formula (I) are listed in Table 1, while those concerning the compounds of general formula (II) are listed in Table 2.
# [1] = U.S. Pat. No. 3,361,742 and J. Am. Chem. Soc., 87, 5791-5793 (1965); cited from earlier work
# [2] = U.S. Pat. No. 3,361,742 and J. Am. Chem. Soc., 87, 5791-5793 (1965); cited from earlier work; remark: listed apart in the source
# Leukaemia P388 = format: in vivo, CDF1 male mice; conditions: ip
# Description: CDF1 male mice having body weight of 18 to 20 g, 10 heads per one group, were inoculated with 2×10^5 cells/mouse Leukaemia P388. Twenty four hours after the inoculation, an appointed dose of test compound was intraperitoneally administered to the animals of administration group, after which the administration was repeated for successive 6 days. The survival day numbers of the animals were counted.
# Survival time of the animals was expressed by average survival day number.
# as §1
# [3] = intraperitoneal, one week after administration, read-out: Acute toxicity LD50
Structure (SMILES),LD50 at 168 h (in vivo; [3]) [mg/kg],also measured
"COC1Nc2c(ccc(C)c2O)C(=O)N2CCCC12 (centres unmarked) [4, 11]",,LD50 at 168 h (in vivo): 13.8 mg/kg
"Cc1ccc2c(c1O)NC(O)C1CC(/C=C/C(N)=O)=CN1C2=O (centres unmarked) [5,10,11,11a-tetrahydro-9,11-dihydroxy-8-methyl-5-oxo-1H-pyrrolo[2,1-C][1,4]-benzodiazepin-2-acrylamide]",,antitumor activity [1]: antitumor; antibacterial activity [2]: antibacterial
"COC1Nc2c(O)cccc2C(=O)N2CCCC12 (centres unmarked) [5, 13]",12.8,"Antitumor activity, Life-prolongation rate (Leukaemia P388; 2.5 mg/kg): 127.0%; Antitumor activity, Life-prolongation rate (Leukaemia P388; 5 mg/kg): 148.0%"
"COc1ccc2c(c1O)NC(OC)C1CCCN1C2=O (centres unmarked) [15, 6]",12.7,
"COC1Nc2c(ccc(C)c2OC(C)=O)C(=O)N2CCCC12 (centres unmarked) [17, 21]",13.9,"Antitumor activity, Life-prolongation rate (Leukaemia P388; 2.5 mg/kg): 125.0%; Antitumor activity, Life-prolongation rate (Leukaemia P388; 5 mg/kg): 149.0%"
"CC(=O)Oc1c(C)ccc2c1N=CC1CCCN1C2=O (centres unmarked) [20, 19]",12.8,
"COC1Nc2c(OC(C)=O)cccc2C(=O)N2CCCC12 (centres unmarked) [24, 33]",12.4,"Antitumor activity, Life-prolongation rate (Leukaemia P388; 2.5 mg/kg): 121.6%; Antitumor activity, Life-prolongation rate (Leukaemia P388; 5 mg/kg): 143.8%"
"CCOC1Nc2c(ccc(C)c2O)C(=O)N2CCCC12 (centres unmarked) [Example 7, 2,3,5,10,11,11a-hexahydro-11-ethoxy-9-hydroxy-8-methyl-1H-pyrrolo[2,1-C][1,4]benzodiazepin-5-one]",13.3,
"Cc1ccc2c(c1O)N=CC1CCCN1C2=O (centres unmarked) [Example 8, 2,3,5,11a-tetrahydro-9-hydroxy-8-methyl-1H-pyrrolo[2,1-C][1,4]benzodiazepin-5-one]",13.6,"Antitumor activity, Life-prolongation rate (Leukaemia P388; 2.5 mg/kg): 126.7%; Antitumor activity, Life-prolongation rate (Leukaemia P388; 5 mg/kg): 148.7%"
"O=C1c2cccc(O)c2N=CC2CCCN12 (centres unmarked) [Example 9, 2,3,5,11a-tetrahydro-9-hydroxy-1H-pyrrolo[2,1-C][1,4]benzodiazepin-5-one]",13.1,
"COc1ccc2c(c1O)N=CC1CCCN1C2=O (centres unmarked) [Example 10, 2,3,5,11a-tetrahydro-9-hydroxy-8-methoxy-1H-pyrrolo[2,1-C][1,4]benzodiazepin-5-one]",13.3,"Antitumor activity, Life-prolongation rate (Leukaemia P388; 2.5 mg/kg): 126.7%; Antitumor activity, Life-prolongation rate (Leukaemia P388; 5 mg/kg): 145.6%"
"Cc1ccc2c(c1O)NC(O)C1CCCN1C2=O (centres unmarked) [Example 12, 2,3,5,10,11,11a-hexahydro-9,11-dihydroxy-8-methyl-1H-pyrrolo[2,1-C][1,4]benzodiazepin-5-one]",12.9,
"O=C1c2cccc(O)c2NC(O)C2CCCN12 (centres unmarked) [Example 14, 2,3,5,10,11,11a-hexahydro-9,11-dihydroxy-1H-pyrrolo[2,1-C][1,4]benzodiazepin-5-one]",12.5,
"COc1ccc2c(c1O)NC(O)C1CCCN1C2=O (centres unmarked) [Example 16, 2,3,5,10,11,11a-hexahydro-9,11-dihydroxy-8-methoxy-1H-pyrrolo[2,1-C][1,4]benzodiazepin-5-one]",12.6,
"CCOC1Nc2c(ccc(C)c2OC(C)=O)C(=O)N2CCCC12 (centres unmarked) [Example 18, 2,3,5,10,11,11a-hexahydro-9-acetoxy-11-ethoxy-8-methyl-1H-pyrrolo[2,1-C][1,4]benzodiazepin-5-one]",12.8,
"CC(=O)Oc1c(C)ccc2c1NC(O)C1CCCN1C2=O (centres unmarked) [Example 22, 2,3,5,10,11,11a-hexahydro-9-acetoxy-11-hydroxy-8-methyl-1H-pyrrolo[2,1-C][1,4]benzodiazepin-5-one]",13.5,
"CC(=O)Oc1cccc2c1NC(O)C1CCCN1C2=O (centres unmarked) [Example 23, 2,3,5,10,11,11a-hexahydro-9-acetoxy-11-hydroxy-1H-pyrrolo[2,1-C][1,4]-benzodiazepin-5-one]",12.7,
"CCOC1Nc2c(O)cccc2C(=O)N2CCCC12 (centres unmarked) [Example 25, 2,3,5,10,11,11a-hexahydro-11-ethoxy-9-hydroxy-1H-pyrrolo[2,1-C][1,4]benzodiazepin-5-one]",13,
"CCOC1Nc2c(OC(C)=O)cccc2C(=O)N2CCCC12 (centres unmarked) [Example 26, 2,3,5,10,11,11a-hexahydro-9-acetoxy-11-ethoxy-1H-pyrrolo[2,1-C][1,4]benzodiazepin-5-one]",13.2,
"COc1ccc2c(c1OC(C)=O)NC(O)C1CCCN1C2=O (centres unmarked) [Example 27, 2,3,5,10,11,11a-hexahydro-9-acetoxy-11-hydroxy-8-methoxy-1H-pyrrolo[2,1-C][1,4]benzodiazepin-5-one]",12.4,
"COc1ccc2c(c1OC(C)=O)NC(OC)C1CCCN1C2=O (centres unmarked) [Example 28, 2,3,5,10,11,11a-hexahydro-9-acetoxy-8,11-dimethoxy-1H-pyrrolo[2,1-C][1,4]benzodiazepin-5-one]",12.3,
"CCOC1Nc2c(ccc(OC)c2O)C(=O)N2CCCC12 (centres unmarked) [Example 29, 2,3,5,10,11,11a-hexahydro-11-ethoxy-9-hydroxy-8-methoxy-1H-pyrrolo[2,1-C][1,4]benzodiazepin-5-one]",12.2,"Antitumor activity, Life-prolongation rate (Leukaemia P388; 2.5 mg/kg): 123.3%; Antitumor activity, Life-prolongation rate (Leukaemia P388; 5 mg/kg): 141.4%"
"CCOC1Nc2c(ccc(OC)c2OC(C)=O)C(=O)N2CCCC12 (centres unmarked) [Example 30, 2,3,5,10,11,11a-hexahydro-9-acetoxy-11-ethoxy-8-methoxy-1H-pyrrolo[2,1-C][1,4]benzodiazepin-5-one]",12.7,
"CC(=O)Oc1cccc2c1N=CC1CCCN1C2=O (centres unmarked) [Example 31, 2,3,5,11a-tetrahydro-9-acetoxy-1H-pyrrolo[2,1-C][1,4]benzodiazepin-5-one]",13.4,
"COc1ccc2c(c1OC(C)=O)N=CC1CCCN1C2=O (centres unmarked) [Example 32, 2,3,5,11a-tetrahydro-9-acetoxy-8-methoxy-1H-pyrrolo[2,1-C][1,4]benzodiazepin-5-one]",13.7,
